According to US20150094354A1, “METHOD FOR TREATING CELL PROLIFERATIVE DISORDER BY INHIBITING C1GALT1 EXPRESSION” (National Taiwan University, priority 2013, published 2015):

What was measured:
[1] = tested on: HGF/MET signaling pathway; experiment: HGF-induced signaling by Western blotting; assay type: cell-based, human
Method: Human liver cancer cell lines, Huh7, PLC5, Sk-Hep1, and HepG2, are purchased from Bioresource Collection and Research Center in the year 2008. HA22T, SNU387, and HCC36 cells are kindly provided by Prof. Shiou-Hwei Yeh (National Taiwan University) in the year 2010. All cell lines are authenticated by the provider based on morphology, antigen expression, growth, DNA profile, and cytogenetics. Cells are cultured in Dulbecco's Modified Eagle Medium (DMEM) containing 10% FBS in 5% CO2 at 37° C. To analyze growth factor-induced cell signaling, cells are starved in serum-free DMEM for 5 hours and then treated with 25 ng/mL of hepatocyte growth factor (HGF) or insulin-like growth factor (IGF) at 37° C. for 30 minutes.
(§1) Equal amounts of protein samples are mixed with 5× sample buffer and boiled for 5 minutes, separated on SDS-polyacrylamide gels, and then transferred to PVDF membrane. The membranes are blocked in 5% BSA for 1 hour at room temperature, and incubated with primary antibodies overnight at 4° C. Anti-phosphotyrosine (4G10) antibody (Millipore, Billerica, Mass.), antibodies against C1GALT1, GAPDH, IGF-IR, MET pY 1234/5, IGF-IR pY1135/1136, p-AKT, p-ERK1/2, and ERK1/2 antibody (BD Pharmingen, San Jose, Calif.) are used. The blots are then incubated with secondary antibody conjugated with horseradish peroxidase and immunoreacted bands are detected by ECL reagents and exposed on x-ray film.
FIGS. 13A-13B are autoradiograms illustrating the effects of C1GALT1 on the HGF-induced signaling and IGF-induced signaling in hepatocellular carcinoma cells in accordance with an embodiment of the present invention. The role of C1GALT1 in glycosylation and activation of MET in hepatocellular carcinoma cells was investigated. HA22T, PLC5, Sk-Hep1, and HCC36 cells were starved for 5 hours and then treated with (+)/without (−) HGF (25 ng/mL) or IGF (25 ng/mL) for 30 minutes. Cell lysates ([…]) were analyzed by Western blotting with various antibodies, as indicated. […] In contrast, overexpression of C1GALT1 enhanced HGF-induced activation of MET and increased p-AKT levels in Sk-Hep1 and HCC36 cells, as shown in FIG. 13B.

C1GALT1 = experiment: Knockdown of C1GALT1 expression confirmed by Western blotting / Q-PCR; assay type: cell-based, human; conditions: siRNA
Source text: According to an embodiment of the present invention, in the experiment in vitro, two siRNA oligonucleotides against C1GALT1, 5′-[…] GG-3′ (SEQ ID NO: 1) and 5′-[…]-3′ (SEQ ID NO: 2), used as the C1GALT1 inhibition substance and a negative control siRNA of medium GC are synthesized by Invitrogen company.
According to another embodiment of the present invention, in the experiment in vivo, the pLKO/C1GALT1-shRNA plasmid containing the sequence, 5′-CCCAGCCTAATG TTCTTCATA-3′(SEQ ID NO: 13), against C1GALT1 is used as the C1GALT1 inhibition substance. The pLKO/C1GALT1-shRNA plasmid and non-targeting pLKO plasmids (as a negative control) are purchased from National RNAi Core Facility (Academia Sinica, Taipei, Taiwan). The short hairpin RNA (shRNA, 20 nM) plasmids are transfected with Lipofectamine® 2000 and selected with 500 ng/mL of puromycin for 10 days. […] Subsequently, 7×10^6 of hepatocellular carcinoma cells containing the pLKO/C1GALT1-shRNA plasmid and the non-targeting pLKO plasmid are subcutaneously injected into severe combined immunodeficient (SCID) mice (n=4 for each group). Tumor volumes are monitored for […]. Excised tumors are weighed and lysed for Western blotting and immunohistochemistry.
as §1
Total RNA is isolated using TRIzol reagent (Invitrogen) according to the manufacturer's protocol. Two micrograms of total RNA is used in reverse transcription reaction using the Superscript III First-Strand cDNA Synthesis Kit (Invitrogen). The cDNA is subjected to quantitative real-time RT-PCR (Q-PCR). Quantitative PCR System Mx3000P (Stratagene, La Jolla, Calif.) is used for quantitative real-time RT-PCR. Reactions are performed in a 20 μl volume with 2 μl cDNA, 400 nM of sense and anti-sense primers, and 10 μl Brilliant®SYBR®Green Q-PCR Master Mix (Stratagene). Primer sets are designed as the following: Primers for C1GALT1 are 5′-[…]-3′ (SEQ ID NO: 5) and 5′-[…]-3′(SEQ ID NO: 6). Primers for GAPDH are 5 ‘-[…]-3’ (SEQ ID NO: 8) and 5′-[…]-3′ (SEQ ID NO: 7). The relative quantity of gene expression normalized to GAPDH is analyzed using MxPro Software (Stratagene). […]

| Substance | HGF-induced phosphorylation of MET at Y1234/5 ([1]; HA22T, HGF 25 ng/mL 30 minutes) | phosphorylation of AKT ([1]; HA22T, HGF 25 ng/mL 30 minutes) | HGF-induced phosphorylation of MET at Y1234/5 ([1]; PLC5, HGF 25 ng/mL 30 minutes) | phosphorylation of AKT ([1]; PLC5, HGF 25 ng/mL 30 minutes) | C1GALT1 expression (C1GALT1; HA22T cells) | C1GALT1 expression (C1GALT1; PLC5 cells) |
| --- | --- | --- | --- | --- | --- | --- |
| C1GALT1 si-1: siRNA oligonucleotide against C1GALT1, presumably SEQ ID NO: 1, UUAGUAUACGUUCAGGUAAGGUAGG (chemistry not given here) | inhibited | suppressed | inhibited | suppressed | knockdown of C1GALT1 | knockdown of C1GALT1 |
| C1GALT1 si-2: siRNA oligonucleotide against C1GALT1, presumably SEQ ID NO: 2, UUAUGUUGGCUAGAAUCUGCAUUGA (chemistry not given here) | inhibited | suppressed | inhibited | suppressed | knockdown of C1GALT1 | knockdown of C1GALT1 |
